# Data taken from article PMC6637423 (Organic & biomolecular chemistry, 2019).
# Assays:
# C57BL/6J mice [1] = test: 55°C warm-water tail-withdrawal assay after i.c.v. administration; format: in vivo, mouse; settings: 1 nmol i.c.v., summed over 90 min
# C57BL/6J mice [2] = test: 55°C warm-water tail-withdrawal assay after oral; format: in vivo, mouse; settings: morphine 5 mg/kg, p.o.
# C57BL/6J mice [3] = test: Respiration rate, Oxymax/CLAMS assay; settings: morphine 30 mg/kg, i.p., positive control
structure (smiles),measurement,setting,value
CN1CC[C@]23c4c5ccc(O)c4O[C@H]2[C@@H](O)C=C[C@H]3[C@H]1C5 [Morphine],Screening: summed tail-withdrawal latency versus vehicle,C57BL/6J mice [1],withdrawal latencies equivalent to vehicle treated animals
same,Antinociception after oral administration versus vehicle,C57BL/6J mice [2],significantly higher antinociceptive effects compared to vehicle treated animals
same,Respiratory effect versus vehicle,C57BL/6J mice [3],suppressed respiration up to an hour
